#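 Protocol summary: plate cells (96-well), add compound at 5 concentrations, incubate 48 h, interpolate endpoints linearly. TGI denotes the concentration required for complete inhibition of growth.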
# Assays:
# Test in all cases: growth of human tumour cells (NCI), 48 h
# [1] = system: CCRF-CEM leukemia
# [2] = system: NCI-H226 lung
# [3] = system: SNB-75 CNS
# [4] = system: SR leukemia
# [5] = system: UACC-62 melanoma
# [6] = system: ACHN renal
# [7] = system: U251 CNS
# [8] = system: SK-OV-3 ovarian
# [9] = system: KM12 colon
# [10] = system: RPMI-8226 leukemia
# [11] = system: TK-10 renal
# [12] = system: PC-3 prostate
# [13] = system: HCT-15 colon
# [14] = system: NCI/ADR-RES ovarian
# [15] = system: M14 melanoma
# [16] = system: DMS 114 small cell lung
# [17] = system: MALME-3M melanoma
# [18] = system: HT29 colon
# [19] = system: SK-MEL-5 melanoma
# [20] = system: T-47D breast
Compound,TGI [1],TGI [2],TGI [3],TGI [4],TGI [5],TGI [6],TGI [7],TGI [8],TGI [9],TGI [10],TGI [11],TGI [12],TGI [13],TGI [14],TGI [15],TGI [16],TGI [17],TGI [18],TGI [19],TGI [20]
Cc1ccc(-c2csc(=Nc3c(C)n(C)n(-c4ccccc4)c3=O)n2CCO)cc1,> 100 µM,> 100 µM,> 100 µM,> 100 µM,> 100 µM,> 100 µM,> 100 µM,> 100 µM,> 100 µM,> 100 µM,> 100 µM,> 100 µM,> 100 µM,> 100 µM,> 100 µM,–,–,–,–,–
CCCCN1C(=O)NC(Cc2ccccc2)C1=O (stereo not given),–,> 100 µM,> 100 µM,> 100 µM,–,> 100 µM,> 100 µM,–,> 100 µM,–,> 100 µM,–,–,–,> 100 µM,> 100 µM,> 100 µM,> 100 µM,–,–
CCCCCCCCCCCCCCCCOCC(COP(=O)([O-])OCC[N+](C)(C)C)OCCCCCCCCCCCCCCCC (stereo not given),> 100 µM,> 100 µM,> 100 µM,–,> 100 µM,–,> 100 µM,> 100 µM,> 100 µM,> 100 µM,–,–,> 100 µM,> 100 µM,–,> 100 µM,> 100 µM,> 100 µM,> 100 µM,–
OCCN(CCO)c1ccc2c(c1)Cc1ccccc1-2,> 100 µM,> 100 µM,–,> 100 µM,> 100 µM,> 100 µM,> 100 µM,> 100 µM,> 100 µM,> 100 µM,55 µM,> 100 µM,> 100 µM,> 100 µM,> 100 µM,–,> 100 µM,37.8 µM,> 100 µM,57.8 µM
CC(C)(C)C(=O)C(C(c1ccccc1)N1CCOCC1)N1CCOCC1 (stereo not given),> 100 µM,–,> 100 µM,> 100 µM,> 100 µM,> 100 µM,> 100 µM,–,> 100 µM,> 100 µM,> 100 µM,> 100 µM,> 100 µM,> 100 µM,> 100 µM,–,> 100 µM,> 100 µM,–,> 100 µM
O=[n+]1c2ccccc2n([O-])c2cc(Br)ccc21,> 100 µM,48.5 µM,77.7 µM,5.21 µM,55.6 µM,17.4 µM,78.8 µM,–,30.9 µM,61.4 µM,72.9 µM,–,32 µM,68.9 µM,> 100 µM,–,39.7 µM,39.1 µM,39.5 µM,45.9 µM
CCO[C@]12C[C@H](OC)[C@@]3(O)CC(C1[C@H]3O)C13C4C2[C@H](OC)C1[C@](COC)(CN4CC)[C@H](O)C[C@@H]3OC (stereo not given in full),> 100 µM,> 100 µM,–,> 100 µM,> 100 µM,> 100 µM,–,> 100 µM,–,> 100 µM,> 100 µM,–,> 100 µM,–,> 100 µM,> 100 µM,–,> 100 µM,> 100 µM,–
CC(C)[C@](O)(C(=O)OCC1CC[N+]2([O-])CC[C@@H](O)C12)[C@H](C)O (stereo not given in full),> 375 µM,> 375 µM,> 161 µM,–,> 375 µM,–,> 375 µM,> 375 µM,> 375 µM,> 375 µM,–,–,> 375 µM,> 375 µM,–,> 375 µM,> 256 µM,> 375 µM,> 375 µM,–
CC(=O)Oc1ccccc1C(=O)O,> 100 µM,> 100 µM,> 100 µM,> 100 µM,> 100 µM,> 100 µM,> 100 µM,> 100 µM,> 100 µM,> 100 µM,> 100 µM,> 100 µM,> 100 µM,> 100 µM,> 100 µM,–,> 100 µM,> 100 µM,> 100 µM,> 100 µM
COc1ccc(N2C(=O)C3c4[nH]c5cccc(C)c5c4C4CCC(C(C)(C)C)CC4C3C2=O)cc1 (stereo not given),–,> 10 µM,> 10 µM,> 10 µM,> 10 µM,> 10 µM,> 10 µM,> 10 µM,> 10 µM,> 10 µM,> 10 µM,> 10 µM,> 10 µM,> 10 µM,> 10 µM,–,> 10 µM,> 10 µM,> 10 µM,> 10 µM
Clc1c(Cl)c2c(Cl)c(Cl)c1C[P+](c1ccccc1)(c1ccccc1)CC[P+](c1ccccc1)(c1ccccc1)Cc1c(Cl)c(Cl)c(c(Cl)c1Cl)C[P+](c1ccccc1)(c1ccccc1)CC[P+](c1ccccc1)(c1ccccc1)C2,9.63 µM,20.2 µM,14.2 µM,–,–,17.6 µM,12.4 µM,21.7 µM,6.12 µM,4.78 µM,9.41 µM,–,24.6 µM,–,16.2 µM,3.7 µM,7 µM,10.3 µM,3.13 µM,–
CC#C[I+]c1ccccc1,18.7 µM,> 100 µM,> 100 µM,36.5 µM,57.6 µM,32 µM,29.1 µM,99.1 µM,40.1 µM,–,30.4 µM,–,–,–,37.1 µM,26.3 µM,38.2 µM,34.5 µM,48.5 µM,–
